Assay: Pharmacokinetics in the HT29 tumor model, non-transfected tumors
Type: in vivo
Details: after i.v. 16 mg/kg Example 60
Method: C-2.3 Pharmacokinetics in the HT29 Tumor Model with Mesothelin-Transfected HT29 Cells and Non-Transfected Cells
After i.v. administration of 16 mg/kg from Example 60, the plasma and tumor concentrations of Example 60 were measured along with potentially occurring metabolites such as those of Example 119, for example. […] In the animals with non-transfected tumors, the exposure in the plasma in Example 119 was identical to the exposure in the plasma of animals with transfected tumors. […] This is indicative of a definite targeting effect in the tumor in the presence of the antigen.
Analysis for Quantitation of the Compound from Example 119 […]
In workup of a tumor, it was mixed with a four-fold amount of methanol. […] After agitating again, the tumor sample was ready for measurement.
Finally, the measurement of both matrix samples was performed on the HPLC coupled atmospheric pressure ionization/tandem mass spectrometer by means of turbo ion spray interface (TISP) on an API4000 instrument from the company SCIEX. The following m/z transitions were measured: […]
For the calibration, plasma samples with concentrations of 0.5-2000 μg/L were mixed. The limit of quantitation (LOQ) was 2 μg/L. The linear range was from 2 to 1000 μg/L. […]

CC[C@H](C)[C@@H]([C@@H](CC(=O)N1CCC[C@H]1[C@H](OC)[C@@H](C)C(=O)N[C@@]1(C(=O)N2CCCCO2)C[C@@H]1c1ccccc1)OC)N(C)C(=O)[C@@H](NC(=O)[C@H](C(C)C)N(C)CCCC(=O)NNC(=O)CCCCCN1C(=O)CC(SC[C@H](N)C(=O)O)C1=O)C(C)C (stereo partly drawn) [Example 119, N-(4-{2-[6-(3-{[(2R)-2-amino-2-carboxyethyl]sulfanyl}-2,5-dioxopyrrolidin-1-yl)hexanoyl]hydrazino}-4-oxobutyl)-N-methyl-L-valyl-N-[(3R,4S,5S)-3-methoxy-1-{(2S)-2-[(1R,2R)-1-methoxy-2-methyl-3-{[(1S,2R)-1-(1,2-oxazinan-2-ylcarbonyl)-2-phenylcyclopropyl]amino}-3-oxopropyl]pyrrolidin-1-yl}-5-methyl-1-oxoheptan-4-yl]-N-methyl-L-valinamide]
AUC in the tumor versus transfected animals: approx. eight times lower
exposure in the plasma versus animals with transfected tumors: identical
